Test results as given in patent US20250327028A1, “ENGINEERED PLATELETS AS TARGETED PROTEIN DEGRADERS” (Wisconsin Alumni Research Foundation, priority 2024, published 2025).

Legend:
[1] = tested on: HSP90α (Hsp90aa1) and HSP90β (Hsp90ab1); assay: Streptavidin-mediated immunoprecipitation and mass spectrum analysis of biotin-labeled protein in 4T1 lysate; type: cell-based, murine; conditions: 4T1 cell lysate
Protocol: Streptavidin-mediated immunoprecipitation and mass spectrum analysis: 2×10^6 4T1 cells were seeded in T75 culture flasks and cultured for 24 h. Then, the medium in the corresponding flasks was replaced with 15 mL of blank medium with DMSO or HAC-B (10 μM). Following incubation for another 2 h, the cells were washed with cold PBS twice and digested with 2 mL trypsin. The cell pellets were collected through centrifugation at 1,200 rpm for 3 min and washed with cold PBS. The final pellets were directly lysed on ice with IP lysis buffer (50 mM Tris-HCl, pH 7.4; 150 mM NaCl; 2 mM EDTA; 1% NP-40) containing PMSF (1 mM) and the phosphatase inhibitor cocktail for 30 min. The lysates were collected and centrifuged at 10,000 g for 10 minutes at 4° C. The total proteins in the supernatants were quantified through the BCA assay, and 20 μL of lysate supernatants were saved as the input samples. To totally pull down the biotin-labeled contents, 150 μL of Pierce™ streptavidin magnetic beads was added to each supernatant, and the resulting mixtures were incubated at 4° C. with a gentle rotation overnight. Subsequently, the supernatant was discarded by placing the tubes on a magnetic rack, and the obtained magnetic beads were washed with IP lysis buffer three times. […] Finally, the bands were treated with ECL western blot substrate and detected by the iBright™ imaging system. […]

4T1 cells = assay: HAC-B-mediated internalization of streptavidin in 4T1 cells; type: cell-based, murine; conditions: 4T1 cells pretreated 5 μM 2 h, vs cells without pretreatment
Protocol: HAC-B-mediated internalization of streptavidin in 4T1 cells: 5×10^4 4T1 cells were seeded in a confocal dish and cultured for 24 h at 37° C. Then, the cells were treated with free HAC-B at 5 μM for 2 h. Next, the drug-containing medium was removed, and PBS was used to wash the cells twice, followed by incubating the cells in the blank medium containing streptavidin-FITC at 0.5 μM for 1 h. For cotreatment, 4T1 cells were cotreated with 5 μM HAC-B and 0.5 μM FITC-SA for 1 h. Before staining with Hoechst 33342, the cells were washed with PBS twice and fixed with 4% PFA at room temperature for 20 min. Finally, the cells were subjected to Leica SP8 Confocal WLL STED microscopy for observation.

WT MDA-MB-231 cells = assay: Colocalization between internalized NeutrAvidin and lysosome marker LAMP1; type: cell-based, human; conditions: HAC-B 5 μM, NA-647 0.5 μM 1 h
Protocol: Colocalization between internalized NeutrAvidin™ and lysosome maker: 5×10^4 WT MDA-MB-231 cells were seeded in a confocal dish and cultured for 24 h at 37° C. Then, the cells were treated with free HAC-B at 5 μM for 2 h. Next, the drug-containing medium was removed, and PBS was used to wash the cells twice, followed by incubating the cells in the blank medium containing NA-647 at 0.5 μM for 1 h. Subsequently, the cells were washed with PBS twice and fixed with 4% PFA at room temperature for 20 min. Subsequently, the cell sample was treated with the permeabilization solution (0.5% Triton™ X-100 in PBS) at room temperature for another 20 min, followed by incubation with the blocking buffer (1% BSA in PBS) at room temperature for 1 h. The cell sample was incubated with the rabbit anti-LAMP1 antibody (Cell Signaling Technology/9091T) overnight at 4° C., followed by the incubation with the Alexa Fluor®488-conjugated anti-rabbit IgG H & L secondary antibodies at room temperature for 2 h. After staining with Hoechst 33342, the cells were subjected to Leica SP8 Confocal WLL STED microscopy for observation.

N#CCN(C(=O)CCCC[C@@H]1SC[C@@H]2NC(=O)N[C@@H]21)S(=O)(=O)c1ccc(C(=O)NCCCn2c(Sc3cc4c(cc3I)OCO4)nc3c(N)ncnc32)cc1 [HAC-B, N-(3-(6-amino-8-((6-iodobenzo[d][1,3]dioxol-5-yl)thio)-9H-purin-9-yl)propyl)-4-(N-(cyanomethyl)-N-(5-((3aS,4S,6aR)-2-oxohexahydro-1H-thieno[3,4-d]imidazol-4-yl)pentanoyl)sulfamoyl)benzamide]
biotin-labeled protein immunoprecipitated by streptavidin beads (gel, immunoblot) ([1]; 10 μM, 2 h, vs sample without treatment): an additional HSP90 band appeared in the gel
protein identification on IP samples through mass spectrum ([1]; streptavidin IP): could bind to both isoforms of HSP90, HSP90α (Hsp90aa1) and HSP90β (Hsp90ab1), with a favorable selectivity
internalization of streptavidin-FITC (4T1 cells): much stronger green fluorescence signals
distribution of internalized NA-647 relative to lysosome marker LAMP1 (WT MDA-MB-231 cells): mainly overlapped with the lysosome maker, LAMP1
